The source made the active and inactive calls.
What was measured:
[1] = target: Ras and Rab interactor 1/Tyrosine-protein kinase ABL1 (Homo sapiens, UniProt P00519+Q13671); format: functional;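 further: biochemical TR-FRET dose-response test measuring inhibition of binding between Rin1 and Abl proteins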
[2] = target: Beta-2 adrenergic receptor (Homo sapiens, UniProt P07550); assay: beta2AR agonists driving receptor internalization, dose response, cell-based, FAP fluorogen, flow cytometry, cherry pick 1 (AID 588763); format: functional
Chain of Beta-2 adrenergic receptor (P07550 whole entry): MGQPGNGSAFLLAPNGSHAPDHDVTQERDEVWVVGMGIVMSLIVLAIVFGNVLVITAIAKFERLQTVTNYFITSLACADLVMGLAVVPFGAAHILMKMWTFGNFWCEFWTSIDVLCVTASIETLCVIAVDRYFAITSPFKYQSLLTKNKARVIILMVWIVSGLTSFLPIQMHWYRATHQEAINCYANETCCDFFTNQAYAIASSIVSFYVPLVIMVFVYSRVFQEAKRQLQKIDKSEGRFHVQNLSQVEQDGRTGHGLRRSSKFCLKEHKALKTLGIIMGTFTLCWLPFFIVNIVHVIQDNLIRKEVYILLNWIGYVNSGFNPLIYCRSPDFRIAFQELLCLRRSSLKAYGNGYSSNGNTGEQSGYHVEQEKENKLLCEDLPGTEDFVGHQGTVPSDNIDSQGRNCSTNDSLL

[3] = nonselective inhibitors of cellular cAMP signaling, dose response, counter-screen for MC4R biased antagonist project, cell-based, TR-FRET cAMP detection (AID 602305); format: functional;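 further: U2OS cells stimulated with forskolin near its EC80 as the cAMP inducer; potency is for inhibition of forskolin-stimulated cAMP signaling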
[4] = target: T1, Type-1 angiotensin II receptor (Homo sapiens, UniProt P30556); assay: AT1 receptor antagonists, dose response, selectivity assay for APJ receptor antagonist project, cell-based, uHTS hits (AID 463214); format: functional;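 further: antagonist potency against angiotensin II stimulated AT1 response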
T1 sequence (P30556 whole entry): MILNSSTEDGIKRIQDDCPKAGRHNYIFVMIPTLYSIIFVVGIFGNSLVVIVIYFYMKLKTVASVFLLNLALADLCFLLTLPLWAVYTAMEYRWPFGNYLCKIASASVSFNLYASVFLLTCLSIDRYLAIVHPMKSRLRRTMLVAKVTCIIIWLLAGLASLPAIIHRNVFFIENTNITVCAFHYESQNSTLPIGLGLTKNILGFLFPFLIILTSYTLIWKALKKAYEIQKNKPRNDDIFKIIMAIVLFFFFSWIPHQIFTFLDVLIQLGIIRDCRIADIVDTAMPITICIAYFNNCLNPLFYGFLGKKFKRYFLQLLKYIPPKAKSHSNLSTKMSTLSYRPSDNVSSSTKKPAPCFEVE

Beta-galactosidase = Beta-galactosidase (Escherichia coli, UniProt Q8VNN2); assay: PubChem AID 485352; format: functional
Chain of Beta-galactosidase (Q8VNN2 whole entry): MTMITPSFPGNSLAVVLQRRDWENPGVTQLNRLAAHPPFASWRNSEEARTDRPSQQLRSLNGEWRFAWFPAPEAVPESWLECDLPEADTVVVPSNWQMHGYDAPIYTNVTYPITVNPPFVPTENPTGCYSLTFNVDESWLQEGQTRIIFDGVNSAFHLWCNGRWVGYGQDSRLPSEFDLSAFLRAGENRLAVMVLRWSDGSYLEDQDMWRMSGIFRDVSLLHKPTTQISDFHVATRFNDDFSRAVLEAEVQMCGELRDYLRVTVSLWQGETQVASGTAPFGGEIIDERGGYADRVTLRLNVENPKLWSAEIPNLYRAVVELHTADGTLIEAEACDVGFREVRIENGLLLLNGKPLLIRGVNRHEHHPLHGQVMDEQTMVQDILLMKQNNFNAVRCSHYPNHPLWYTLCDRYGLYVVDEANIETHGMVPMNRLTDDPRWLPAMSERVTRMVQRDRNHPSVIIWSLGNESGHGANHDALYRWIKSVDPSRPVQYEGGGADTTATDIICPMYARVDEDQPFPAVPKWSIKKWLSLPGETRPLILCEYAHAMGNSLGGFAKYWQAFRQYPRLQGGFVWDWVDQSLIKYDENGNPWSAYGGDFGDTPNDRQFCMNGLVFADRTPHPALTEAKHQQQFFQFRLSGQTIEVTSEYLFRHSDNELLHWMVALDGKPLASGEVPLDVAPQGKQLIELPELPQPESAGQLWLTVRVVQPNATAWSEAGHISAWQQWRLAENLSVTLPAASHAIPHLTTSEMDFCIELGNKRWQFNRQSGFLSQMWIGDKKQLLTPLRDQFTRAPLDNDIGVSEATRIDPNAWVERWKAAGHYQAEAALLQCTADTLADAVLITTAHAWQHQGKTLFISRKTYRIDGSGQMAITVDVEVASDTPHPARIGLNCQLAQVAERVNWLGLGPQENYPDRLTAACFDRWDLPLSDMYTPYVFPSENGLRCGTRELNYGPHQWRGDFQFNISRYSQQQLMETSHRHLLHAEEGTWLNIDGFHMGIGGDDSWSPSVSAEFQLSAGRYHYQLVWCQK

[5] = Luminescence Cell-Based Dose Retest to Confirm Inhibitors of Cancer Stem Cells. [Related pubchem assays (depositor defined):AID2717, AID2721]; format: functional; settings: Homo sapiens
[6] = growth suppression of PTEN-null colon cells, dose response, cell-based, HCT116 PTEN knockout (AID 1047); format: functional;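 further: HCT116 colon tumor cells with PTEN knocked out; cells exposed to compound for 60 hours before readout; potency for loss of cell viability measured by luminescence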
[7] = growth suppression of beta-catenin-knockout colon cells, dose response, cell-based, HCT116, human colon tumor (AID 1045); format: functional;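 further: HCT116 colon tumor cells with beta catenin knocked out; cells exposed to compound for 60 hours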
Melanocortin receptor 4 [8] = target: T2, Melanocortin receptor 4 (Homo sapiens, UniProt P32245); assay: MC4R antagonist potency on cAMP, dose response, cell-based, TR-FRET, biased antagonists (AID 602298); format: functional;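 further: antagonist potency against agonist-stimulated cAMP production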
T2 sequence (P32245 whole entry): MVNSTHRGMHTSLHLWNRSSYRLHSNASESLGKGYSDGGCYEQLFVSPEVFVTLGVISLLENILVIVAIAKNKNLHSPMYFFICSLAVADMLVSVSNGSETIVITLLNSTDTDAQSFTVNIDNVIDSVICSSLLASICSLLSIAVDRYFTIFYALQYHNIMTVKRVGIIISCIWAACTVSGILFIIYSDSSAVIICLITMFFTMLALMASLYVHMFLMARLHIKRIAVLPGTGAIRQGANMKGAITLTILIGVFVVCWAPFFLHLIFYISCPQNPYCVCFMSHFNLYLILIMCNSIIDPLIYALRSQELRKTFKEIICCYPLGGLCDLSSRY

[9] = target: T3, Probable nicotinate-nucleotide adenylyltransferase (Staphylococcus aureus (strain N315), UniProt P65502); format: functional, Staphylococcus aureus subsp. aureus N315;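 on IC50 Mean: confirmatory dose-response retesting of NadD inhibitor hits first found in an ultra-high-throughput screen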
T3 sequence (P65502 whole entry): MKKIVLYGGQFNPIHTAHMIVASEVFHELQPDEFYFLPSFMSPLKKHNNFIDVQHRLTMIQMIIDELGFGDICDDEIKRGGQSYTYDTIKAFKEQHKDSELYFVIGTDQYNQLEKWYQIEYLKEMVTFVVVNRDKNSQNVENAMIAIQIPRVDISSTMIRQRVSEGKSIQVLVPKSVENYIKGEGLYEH

[10] = target: T3, Probable nicotinate-nucleotide adenylyltransferase; format: functional, Staphylococcus aureus subsp. aureus N315; settings: read-out: IC50_Mean
Paired box protein Pax-8 = Paired box protein Pax-8 (Homo sapiens, UniProt Q06710); assay: inhibitors of PAX8-driven TPO luciferase reporter, dose response, RMG-I cells, cherry-pick (AID 687027); format: functional, cell-based;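 further: luciferase reporter driven by Pax8 target thyroperoxidase promoter measured by SteadyGlo luminescence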
Chain of Paired box protein Pax-8 (Q06710 whole entry): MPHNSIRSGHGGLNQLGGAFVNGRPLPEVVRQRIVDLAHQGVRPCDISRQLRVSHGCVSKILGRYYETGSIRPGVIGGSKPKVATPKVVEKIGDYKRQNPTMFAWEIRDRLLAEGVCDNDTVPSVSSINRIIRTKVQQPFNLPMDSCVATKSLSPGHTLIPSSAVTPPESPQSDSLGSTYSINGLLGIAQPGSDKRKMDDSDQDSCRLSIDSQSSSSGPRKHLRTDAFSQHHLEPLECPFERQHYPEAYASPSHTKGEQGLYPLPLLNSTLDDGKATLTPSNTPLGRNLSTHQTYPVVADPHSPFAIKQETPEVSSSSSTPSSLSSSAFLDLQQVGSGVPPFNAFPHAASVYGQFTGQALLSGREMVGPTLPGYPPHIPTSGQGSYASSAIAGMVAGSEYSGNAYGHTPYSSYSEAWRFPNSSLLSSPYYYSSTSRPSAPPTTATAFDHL

Melanocortin receptor 4 [11] = target: T2, Melanocortin receptor 4; format: functional, cell-based
[12] = miR-122 activators in hepatoma reporter cells, dose response, cell-based, Huh7 psiCHECK-miR122, Renilla luciferase, cherry-picked (AID 651956); format: functional;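 further: huh7 hepatoma cells stably carrying a psiCHECK-2 miR-122 sensor plasmid; renilla luciferase signal reporting endogenous miR-122 activity after 48 h compound exposure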
[13] = target: T4, Sentrin-specific protease 8 (Homo sapiens, UniProt Q96LD8); format: functional
T4 sequence (Q96LD8 whole entry): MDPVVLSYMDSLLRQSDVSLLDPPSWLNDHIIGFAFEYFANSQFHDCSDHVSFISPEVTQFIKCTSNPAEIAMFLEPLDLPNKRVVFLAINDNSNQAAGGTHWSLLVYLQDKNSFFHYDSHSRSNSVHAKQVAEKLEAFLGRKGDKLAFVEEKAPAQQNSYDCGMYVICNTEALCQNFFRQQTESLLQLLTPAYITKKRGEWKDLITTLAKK

[14] = target: T4, Sentrin-specific protease 8; format: functional; remark: listed apart in the source
[15] = HeLa cell cytotoxicity, dose response, cytotoxicity control for MgcRacGAP inhibitor project (AID 624300); format: functional
[16] = target: T5, Rac GTPase-activating protein 1 (Homo sapiens, UniProt Q9H0H5); assay: MgcRacGAP GTPase-activating activity inhibitors, confirmation, biochemical, ADP Hunter fluorescence, primary and confirmatory (AID 624330); format: functional
T5 sequence (Q9H0H5 whole entry): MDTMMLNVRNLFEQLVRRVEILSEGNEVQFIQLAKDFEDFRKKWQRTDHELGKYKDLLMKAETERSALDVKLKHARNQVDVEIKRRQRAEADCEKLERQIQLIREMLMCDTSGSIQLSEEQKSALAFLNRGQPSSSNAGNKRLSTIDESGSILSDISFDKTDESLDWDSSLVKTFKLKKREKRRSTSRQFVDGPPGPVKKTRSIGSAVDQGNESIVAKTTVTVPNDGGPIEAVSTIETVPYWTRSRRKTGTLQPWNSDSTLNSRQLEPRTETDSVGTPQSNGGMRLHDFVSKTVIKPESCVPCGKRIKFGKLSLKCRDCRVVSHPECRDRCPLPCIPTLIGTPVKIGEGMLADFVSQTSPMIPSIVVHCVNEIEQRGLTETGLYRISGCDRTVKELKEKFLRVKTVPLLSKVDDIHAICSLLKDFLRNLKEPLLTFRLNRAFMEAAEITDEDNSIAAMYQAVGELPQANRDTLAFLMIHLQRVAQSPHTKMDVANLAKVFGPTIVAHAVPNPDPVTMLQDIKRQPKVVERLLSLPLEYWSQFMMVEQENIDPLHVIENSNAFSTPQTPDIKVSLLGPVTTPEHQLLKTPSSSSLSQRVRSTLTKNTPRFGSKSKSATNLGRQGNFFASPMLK

[17] = inhibitors of intracellular T. cruzi replication, confirmation, NIH3T3 host cells, beta-gal luminescence (AID 2044); format: functional, cell-based;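 further: intracellular parasites grown in NIH/3T3 mouse fibroblasts as host cells; luminescent beta-galactosidase reporter signal from transgenic T. cruzi replicating inside host cells; inhibitors lower the luminescence signal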
[18] = cytotoxicity toward NIH3T3 fibroblasts, dose response, counter-screen, cell-based, ATP luminescence, mouse fibroblasts (AID 2010); format: functional;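 further: cells exposed to compound for about 90 hours before reading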
[19] = target: T6, DNA repair and recombination protein RAD54-like (Homo sapiens, UniProt Q92698); assay: inhibitors of human RAD54 branch migration, confirmation, biochemical, fluorescence, cherry-picked samples, dose series (AID 651657); format: functional
T6 sequence (Q92698 whole entry): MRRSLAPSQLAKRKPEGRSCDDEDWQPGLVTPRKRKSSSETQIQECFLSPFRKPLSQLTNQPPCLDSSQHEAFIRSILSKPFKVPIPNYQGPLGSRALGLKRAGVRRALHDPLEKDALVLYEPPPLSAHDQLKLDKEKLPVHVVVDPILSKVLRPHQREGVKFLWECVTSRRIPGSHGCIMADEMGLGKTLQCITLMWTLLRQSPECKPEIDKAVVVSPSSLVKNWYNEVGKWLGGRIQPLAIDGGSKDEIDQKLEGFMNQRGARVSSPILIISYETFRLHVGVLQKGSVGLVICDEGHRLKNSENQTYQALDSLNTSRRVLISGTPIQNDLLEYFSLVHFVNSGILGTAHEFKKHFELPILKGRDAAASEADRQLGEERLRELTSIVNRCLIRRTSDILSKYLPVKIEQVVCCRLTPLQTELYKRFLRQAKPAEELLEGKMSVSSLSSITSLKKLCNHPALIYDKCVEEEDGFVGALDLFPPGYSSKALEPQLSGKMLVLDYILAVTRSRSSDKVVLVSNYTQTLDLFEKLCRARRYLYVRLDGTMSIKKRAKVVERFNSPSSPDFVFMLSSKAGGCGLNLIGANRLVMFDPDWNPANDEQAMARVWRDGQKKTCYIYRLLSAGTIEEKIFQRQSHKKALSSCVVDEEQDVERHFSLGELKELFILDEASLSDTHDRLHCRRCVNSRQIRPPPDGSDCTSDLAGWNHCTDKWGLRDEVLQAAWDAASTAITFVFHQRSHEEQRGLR

[20] = target: T7, Long-chain-fatty-acid--AMP ligase FadD28 (Mycobacterium tuberculosis, UniProt P9WQ59); assay: Fluorescence polarization aasay to screen for inhibitors that compete for the binding of FadD28 to a bisubstrate Measured in Biochemical System Using Plate Reader - 2147-01_Inhibitor_Dose_CherryPick_Activity.; format: functional, Mycobacterium tuberculosis H37Rv
T7 sequence (P9WQ59 whole entry): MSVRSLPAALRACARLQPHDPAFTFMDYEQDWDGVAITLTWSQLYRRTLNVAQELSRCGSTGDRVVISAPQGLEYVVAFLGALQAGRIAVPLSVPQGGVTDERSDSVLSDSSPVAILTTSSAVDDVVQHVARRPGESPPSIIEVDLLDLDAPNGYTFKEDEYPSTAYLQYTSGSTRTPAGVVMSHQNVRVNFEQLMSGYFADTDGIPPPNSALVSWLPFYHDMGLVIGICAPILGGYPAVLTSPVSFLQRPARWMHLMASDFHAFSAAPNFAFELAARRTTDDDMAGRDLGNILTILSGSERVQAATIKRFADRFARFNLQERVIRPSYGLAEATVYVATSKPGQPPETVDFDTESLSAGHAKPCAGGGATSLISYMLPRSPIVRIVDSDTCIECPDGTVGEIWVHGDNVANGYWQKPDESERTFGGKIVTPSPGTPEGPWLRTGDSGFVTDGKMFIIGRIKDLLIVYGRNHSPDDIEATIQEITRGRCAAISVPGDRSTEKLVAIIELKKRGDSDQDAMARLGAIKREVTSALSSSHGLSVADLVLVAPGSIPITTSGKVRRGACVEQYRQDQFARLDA

[21] = target: T8, Microphthalmia-associated transcription factor (Homo sapiens, UniProt O75030); assay: TRPM1 promoter luciferase signal decrease, dose response, MITF inhibitor project, cell-based, SK-MEL-5, cherry-picked, set 3 (AID 493073); format: functional
T8 sequence (O75030 whole entry): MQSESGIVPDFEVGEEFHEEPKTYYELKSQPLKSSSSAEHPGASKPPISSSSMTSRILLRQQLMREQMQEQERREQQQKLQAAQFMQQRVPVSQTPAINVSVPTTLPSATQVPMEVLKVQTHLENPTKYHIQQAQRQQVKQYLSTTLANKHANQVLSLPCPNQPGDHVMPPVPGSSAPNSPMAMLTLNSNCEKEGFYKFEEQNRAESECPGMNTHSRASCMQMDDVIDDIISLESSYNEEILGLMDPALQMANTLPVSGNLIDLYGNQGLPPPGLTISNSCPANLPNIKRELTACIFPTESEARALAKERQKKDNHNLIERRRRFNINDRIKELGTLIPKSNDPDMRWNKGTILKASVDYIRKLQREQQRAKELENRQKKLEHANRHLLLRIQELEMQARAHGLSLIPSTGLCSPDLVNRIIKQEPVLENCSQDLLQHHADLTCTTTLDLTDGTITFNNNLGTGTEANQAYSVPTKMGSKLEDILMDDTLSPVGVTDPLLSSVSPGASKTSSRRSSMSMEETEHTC

[22] = target: T9, Small ubiquitin-related modifier 1 (Homo sapiens, UniProt P63165); assay: inhibitors of SUMO1 peptide binding, dose response, biochemical, fluorescence polarization, uHTS hits (AID 624382); format: functional; settings: read-out: IC50_Mean
T9 sequence (P63165 whole entry): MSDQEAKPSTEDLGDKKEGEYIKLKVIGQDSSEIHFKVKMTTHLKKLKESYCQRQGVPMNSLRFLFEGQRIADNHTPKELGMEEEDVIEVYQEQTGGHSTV

[23] = target: T9, Small ubiquitin-related modifier 1; assay: inhibitors of SUMO1 partner interactions, dose response, biochemical, FRET (AID 624383); format: functional; settings: read-out: IC50_Mean

Chain of Ras and Rab interactor 1/Tyrosine-protein kinase ABL1 (P00519 whole entry): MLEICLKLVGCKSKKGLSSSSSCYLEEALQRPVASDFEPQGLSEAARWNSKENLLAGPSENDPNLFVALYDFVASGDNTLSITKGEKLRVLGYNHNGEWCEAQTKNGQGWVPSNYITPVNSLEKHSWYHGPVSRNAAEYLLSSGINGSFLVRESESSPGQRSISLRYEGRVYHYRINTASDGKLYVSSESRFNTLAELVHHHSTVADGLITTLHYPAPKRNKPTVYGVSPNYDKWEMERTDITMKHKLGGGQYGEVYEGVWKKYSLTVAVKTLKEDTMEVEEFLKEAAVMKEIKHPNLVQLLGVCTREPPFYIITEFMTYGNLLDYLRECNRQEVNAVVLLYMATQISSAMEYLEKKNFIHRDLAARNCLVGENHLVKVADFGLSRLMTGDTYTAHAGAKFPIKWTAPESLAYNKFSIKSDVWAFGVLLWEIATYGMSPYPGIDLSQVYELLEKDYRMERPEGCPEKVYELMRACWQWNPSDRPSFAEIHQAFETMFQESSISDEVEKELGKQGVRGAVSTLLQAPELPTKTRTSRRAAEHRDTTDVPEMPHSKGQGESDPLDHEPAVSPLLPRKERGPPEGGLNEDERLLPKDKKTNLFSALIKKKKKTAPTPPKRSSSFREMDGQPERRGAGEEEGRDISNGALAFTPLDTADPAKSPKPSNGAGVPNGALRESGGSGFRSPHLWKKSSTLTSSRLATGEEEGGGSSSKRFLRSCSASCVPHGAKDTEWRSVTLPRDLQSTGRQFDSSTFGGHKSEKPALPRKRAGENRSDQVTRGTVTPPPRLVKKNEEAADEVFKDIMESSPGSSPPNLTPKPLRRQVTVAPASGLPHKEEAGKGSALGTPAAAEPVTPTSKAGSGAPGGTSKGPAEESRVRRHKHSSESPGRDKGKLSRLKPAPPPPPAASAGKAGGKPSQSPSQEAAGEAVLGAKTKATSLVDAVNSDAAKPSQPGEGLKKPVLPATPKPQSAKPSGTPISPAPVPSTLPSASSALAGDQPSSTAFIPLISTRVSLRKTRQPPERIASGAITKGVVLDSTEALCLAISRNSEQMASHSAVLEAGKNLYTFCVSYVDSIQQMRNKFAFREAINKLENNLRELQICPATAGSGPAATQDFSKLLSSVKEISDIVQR
Chain of Ras and Rab interactor 1/Tyrosine-protein kinase ABL1 (Q13671 whole entry): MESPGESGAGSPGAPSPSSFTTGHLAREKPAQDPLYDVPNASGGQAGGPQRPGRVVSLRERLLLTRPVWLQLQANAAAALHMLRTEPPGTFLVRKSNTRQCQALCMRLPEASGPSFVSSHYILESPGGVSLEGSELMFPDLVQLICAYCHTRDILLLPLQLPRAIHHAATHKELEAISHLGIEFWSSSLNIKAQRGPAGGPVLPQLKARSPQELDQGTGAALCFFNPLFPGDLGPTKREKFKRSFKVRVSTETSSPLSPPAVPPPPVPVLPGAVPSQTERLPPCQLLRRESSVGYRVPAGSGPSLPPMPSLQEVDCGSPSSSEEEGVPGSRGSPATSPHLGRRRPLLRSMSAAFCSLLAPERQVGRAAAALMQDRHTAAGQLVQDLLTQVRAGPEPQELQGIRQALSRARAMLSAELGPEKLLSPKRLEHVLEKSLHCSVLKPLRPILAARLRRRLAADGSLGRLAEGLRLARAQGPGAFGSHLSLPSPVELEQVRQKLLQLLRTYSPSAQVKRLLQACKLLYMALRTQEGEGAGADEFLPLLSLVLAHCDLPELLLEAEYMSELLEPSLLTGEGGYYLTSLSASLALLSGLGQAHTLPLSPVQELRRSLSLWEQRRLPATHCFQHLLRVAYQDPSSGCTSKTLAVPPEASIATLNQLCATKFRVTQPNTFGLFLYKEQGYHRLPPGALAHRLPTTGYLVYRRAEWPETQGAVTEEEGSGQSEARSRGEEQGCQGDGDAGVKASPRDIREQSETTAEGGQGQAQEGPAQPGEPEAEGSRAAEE

COc1ccc(/C=N/NC(=O)Cn2c(Cc3ccc(OC)c(OC)c3)nc3ccccc32)cc1
IC50 [1]: > 73.4 µM (inactive)

CC(C)Cc1nc2oc3c(Cl)ncnc3c2c2c1CCC2
EC50 [2]: 11.8 µM (inactive)
IC50 [3]: > 64.6 µM (inactive)
IC50 [4]: > 40 µM (not active)
EC50 (Beta-galactosidase): > 40 µM (inactive)
AC50 [5]: 4.61 µM (active)
EC50 [6]: 18 µM (active)
EC50 [7]: 8.07 µM (active)
IC50 (Melanocortin receptor 4 [8]): > 64.6 µM (inactive)

C#CCN(C[C@H]1[C@H](OC(=O)NCc2ccccc2)[C@H](OC(=O)NCc2ccccc2)C[C@H]2C(=O)N(c3ccccc3)C(=O)[C@@H]12)S(=O)(=O)c1ccc(C)cc1
IC50 [9]: 16.5 µM (active)
IC50 [10]: 42.3 µM (active)

CCN1CCN(Cc2ccc(NC(=O)c3cc(NC(=O)C(=O)c4c[nH]c5ccccc45)cc(OC)c3)cc2C(F)(F)F)CC1
AC50 (Paired box protein Pax-8): 8.98 µM (active)
EC50 (Melanocortin receptor 4 [11]): > 89.2 µM (inactive)

O=C1NC[C@@H](CCCCN2C[C@H](Cc3ccc(O)cc3)N(CCC3CCCCC3)C(=O)C2=O)N(CC2CCCCC2)C1=O
IC50 [9]: 8.3 µM (active)
IC50 [10]: 37.2 µM (active)

COc1cccc(-c2ccc3c(c2)O[C@H](CN(C)C(=O)C2CCOCC2)[C@H](C)CN([C@H](C)CO)S3(=O)=O)c1
AC50 [12]: 15.8 µM (active)

COc1ccc(C(NC(=O)C2CCN(CCOc3ccc(Cl)cc3Cl)CC2)c2ccccc2C)cn1 (centres undefined)
EC50 (Melanocortin receptor 4 [11]): > 89.2 µM (inactive)

O=C(Cc1ccc(NC(=O)C2CCN(C(=O)C3CCCCC3)CC2)cc1)Nc1ccc(C(=O)N2CCOCC2)cc1
IC50 [1]: 5.51 µM (active)

O=C(CCCn1c(=O)oc2ccccc21)N1CCc2ccccc2C1
IC50 [13]: 8 µM (active)
IC50 [14]: > 100 µM (inactive)

CCN1CCC(O)(/C=C/c2ccc(C(C)C)cc2)C(C(=O)/C=C/c2ccc(C(C)C)cc2)C1 (centres undefined)
EC50 (Melanocortin receptor 4 [11]): > 89.2 µM (inactive)

COc1ccc(Br)cc1CNCCc1cccc(Cl)c1
CC50 [15]: 100 µM (active)
IC50 [16]: 130 µM (active)
EC50 [17]: 1.12 µM (active)
EC50 [18]: > 60 µM (not active)

Cc1cccc(N2CCN(C(=O)c3ccc4c(c3)NC(=O)C(CSCc3cccc(F)c3)N4)CC2C)c1 (centres undefined)
IC50 [9]: 3.09 µM (active)
IC50 [10]: 13.8 µM (active)

COc1cccc(-c2nc(NCCN3CCOCC3)c3ccccc3n2)c1O
AC50 [19]: 8.35 µM (active)
AC50 [12]: 51.4 µM (active)

O=C(O)c1cccc(N/N=C/c2ccc(OC(F)(F)F)cc2)c1
AC50 [20]: 39.7 µM (active)
AC50 [21]: 5.95 µM (active)

NNc1ccc([N+](=O)[O-])c2n[nH]c(O)c12
IC50 [22]: > 66.6 µM (inactive)
IC50 [16]: 76.8 µM (active)
IC50 [23]: 5.04 µM (active)

Source: ChEMBL document CHEMBL1201862, “PubChem BioAssay data set” (2004)
